Data from patent publication US20260217701A1, “SELECTIVE BET INHIBITORS AND USES THEREOF” (Tay Therapeutics Limited, priority 2022, published 2026).
Several values for one entry are separate records, joined by “and”; a condition that tells them apart may be missing. Identical values can stand only once.

Tested on: imiquimod-induced psoriasis
Assay: Imiquimod-induced psoriasis model
Format: in vivo, mice
Design: Spleen Weight / Spleen Weight Ratio: unit not given here
Conditions: for PASI Scores: IMI + Apremilast 3 mg/kg; for Mean scores of the presence of erythema on the skin of animals at the area of induction of psoriasis / Mean scores of the presence of induration on the skin of animals at the area of induction of psoriasis / Mean scores of the presence of peeling on the skin of animals at the area of induction of psoriasis: mean ± SEM
Excerpt: Imiquimod-induced psoriasis is a model of psoriasis in mice that induces psoriasis-like dermatitis. The pathology closes resembles human plaque-type psoriasis and is a valuable tool for testing new therapies against psoriasis. […] Compound A was formulated in a 5% DMSO/40% PEG-400/55% (0.9% NaCl w/v water) solution (Table 2F). Experimental groups for the study are outlined in Table 4. Prior to study initiation, the backs of all animals in the study were depilated to allow for induction of psoriasis and monitoring of disease progression.
Once assigned to experimental groups, on Day 1 and continuing through Day 14, topical imiquimod (IMI; Aldara™ containing 5% Imiquimod) was administered to the dorsal depilated animals, and animals in group 1 received topical administration of Excipial® hydrocream (65 mg). […] Clobetasol was applied topically for animals in group 11.
Body weights were recorded three times a week from Day 1 to Day 8, and daily from Day 8 until the study end at Day 15. At termination on D15 the spleen weight ratio was determined. Disease severity was assessed using the psoriasis area severity index (PASI) daily from Day 8 until study completion on Day 15. The PASI score was calculated based on three parameters (presence of erythema, induration of the skin, and peeling of the skin at the area of induction) on a scale of 0 to 4 (0=no more or absence, 1=low, 2=moderate, 3=high, 4=severe). The PASI score for each animal was calculated as the sum of the score of each parameter measured. The score of the use of enrichment (SUE) was also assessed daily from Day 8 to Day 15. At study completion on Day 15, animal behavior was evaluated using an open field to assess distance travelled, number scratching, and licking and rearing performed in 10 minutes. Upon study termination animals were sacrificed, the spleen was excised and weighed, and blood samples were collected. Serum was isolated from the blood sample for cytokine and other biomarker analysis. IL-1B, IL-6, IL-17, and TNF-α assayed using simple plex technique on an ELLA automated immunoassay system. IL-22 and IL-23 were assayed by ELISA.
The imiquimod-induced model of psoriasis was used to assess the efficacy of Compound A in treating psoriasis. […] Treatment started on Day 8 after induction so reference to day 1 of treatment is to Day 8 and day 7 of treatment is to Day 14.

[1] = IMI-psoriasis model, behavioral evaluation D15, 3 mg/kg, individual animals
[2] = IMI-psoriasis model, behavioral evaluation, 3 mg/kg, individual animals
[3] = IMI-psoriasis model, mice, 3 mg/kg, individual animals
[4] = IMI + 3 mg/kg, D8 (before start of treatment)

Compound: CCOc1cc([C@@H](CS(C)(=O)=O)N2C(=O)c3cccc(NC(C)=O)c3C2=O)ccc1OC [Apremilast, reference compound]
- Body Weight D1 (IMI + 3 mg/kg, Day 1 (before treatment start on Day 8), individual animals, 3 mg/kg, in g (unit assumed)): 18.04 and 18.00 and 18.05 and 18.89 and 15.16 and 17.91 and 18.62 and 18.72
- Body Weight D3 (IMI + 3 mg/kg, Day 3 (before treatment start on Day 8), individual animals, 3 mg/kg, in g (unit assumed)): 15.91 and 16.38 and 17.39 and 17.17 and 13.24 and 16.46 and 17.63 and 16.03
- Body Weight D5 (IMI + 3 mg/kg, Day 5 (before treatment start on Day 8), individual animals, 3 mg/kg, in g (unit assumed)): 16.70 and 17.24 and 17.88 and 17.91 and 13.95 and 16.38 and 17.65 and 16.94
- Body Weight D7 (IMI + 3 mg/kg, Day 7 (before treatment start on Day 8), individual animals, 3 mg/kg, in g (unit assumed)): 16.55 and 16.74 and 17.25 and 17.69 and 15.07 and 16.92 and 17.97 and 17.32
- Body Weight D8 (IMI + 3 mg/kg, Day 8 (first day of treatment), individual animals, 3 mg/kg, in g (unit assumed)): 16.41 and 16.59 and 17.27 and 17.43 and 13.81 and 17.05 and 17.50 and 16.19
- Body Weight D9 (IMI + 3 mg/kg, Day 9, individual animals, 3 mg/kg): 16.75 and 17.41 (2×) and 17.44 and 17.12 and 13.85 and 17.04 and 16.34
- Body Weight D10 (IMI + 3 mg/kg, Day 10, individual animals, 3 mg/kg, in g (unit assumed)): 17.13 and 17.32 and 17.55 and 17.39 and 13.82 and 17.24 and 17.62 and 17.09
- Body Weight D11 (IMI + 3 mg/kg, Day 11, individual animals, 3 mg/kg, in g (unit assumed)): 16.87 and 17.60 and 17.50 and 17.32 and 14.44 and 17.59 and 17.99 and 17.89
- Body Weight D12 (IMI + 3 mg/kg, Day 12, individual animals, 3 mg/kg, in g (unit assumed)): 17.32 and 18.46 and 17.58 and 17.84 and 14.88 and 18.39 and 18.34 and 18.22
- Body Weight D13 (IMI + 3 mg/kg, Day 13, individual animals, 3 mg/kg, in g (unit assumed)): 17.57 and 18.62 and 18.39 and 18.19 and 14.70 and 18.17 and 18.61 and 18.32
- Body Weight D14 (IMI + 3 mg/kg, Day 14, individual animals, 3 mg/kg, in g (unit assumed)): 17.89 and 18.64 and 18.56 and 18.40 and 15.26 and 17.85 and 18.49 and 18.20
- Body Weight D15 (IMI + 3 mg/kg, Day 15, individual animals, 3 mg/kg): 18.27 and 18.85 (2×) and 18.94 and 15.48 and 18.37 and 18.62 and 18.57
- MBWC D1-D8 (IMI + 3 mg/kg, body weight change Day 1 to Day 8 (before treatment), individual animals, 3 mg/kg): −1.63 and −1.41 and −0.78 and −1.46 and −1.35 and −0.86 and −1.12 and −2.53
- MBWC D8-D15 (IMI + 3 mg/kg, body weight change Day 8 to Day 15 (treatment period), individual animals, 3 mg/kg): 1.86 and 2.26 and 1.67 (2×) and 1.42 and 1.32 and 1.12 and 2.38
- PASI Scores (D8 (day treatment started), individual animals): 9 and 7 (4×) and 8 (2×) and 6
- PASI Scores (D9, individual animals): 8 and 5 (2×) and 7 and 6 (3×) and 4
- PASI Scores (D10, individual animals): 6 (2×) and 7 (2×) and 4 (4×)
- PASI Scores (D11, individual animals): 5 (4×) and 4 (4×)
- PASI Scores (D12, individual animals): 3 (4×) and 5 and 2 (2×) and 1
- PASI Scores (D13, individual animals): 1 (3×) and 0 (3×) and 2 (2×)
- PASI Scores (D14, individual animals): 2 and 0 (3×) and 1 (4×)
- PASI Scores (D15, individual animals): 1 (3×) and 0 (5×)
- Use Enrichment D1 (IMI-psoriasis model, D1, 3 mg/kg, per cage (two animals)): 4.0
- Use Enrichment D10 (IMI-psoriasis model, D10, 3 mg/kg, per cage (two animals)): 2.5 and 3.0 and 2.0
- Use Enrichment D11 (IMI-psoriasis model, D11, 3 mg/kg, per cage (two animals)): 3.5 and 4.0 and 3.0
- Use Enrichment D12 (IMI-psoriasis model, D12, 3 mg/kg, per cage (two animals)): 3.5 and 2.5 and 3.0
- Use Enrichment D13 (IMI-psoriasis model, D13, 3 mg/kg, per cage (two animals)): 4.0
- Use Enrichment D14 (IMI-psoriasis model, D14, 3 mg/kg, per cage (two animals)): 4.0
- Use Enrichment D15 (IMI-psoriasis model, D15, 3 mg/kg, per cage (two animals)): 4.0
- Number Licking [1]: 4 (2×) and 5 and 1 and 2 (2×) and 3 (2×)
- Number Licking + Scratching [1]: 5 and 6 and 1 and 2 (2×) and 7 and 3 (2×)
- Number Scratching [1]: 1 (2×) and 0 (5×) and 3
- Distance Traveled [2]: 10 m and 13 m and 8 m and 11 m (2×) and 17 m and 9 m and 15 m
- Number Rearings [2]: 20 and 58 and 21 and 42 and 81 and 13 and 60 and 12
- Use Enrichment Mean D1-D8 (IMI-psoriasis model, mean D1-D8, 3 mg/kg, per cage (two animals)): 2.50 and 2.00
- Use Enrichment Mean D8-D15 (IMI-psoriasis model, mean D8-D15, 3 mg/kg, per cage (two animals)): 3.07 and 3.36 and 2.93
- Spleen Weight [3]: 180.97 and 286.06 and 424.79 and 208.70 and 207.33 and 227.51 and 223.09 and 221.44
- Spleen Weight Ratio [3]: 990.53 and 1517.56 and 2242.82 and 1107.16 and 1339.34 and 1238.49 and 1198.12 and 1192.46
- Mean scores of the presence of erythema on the skin of animals at the area of induction of psoriasis [4]: 2.1 ± 0.1
- Mean scores of the presence of induration on the skin of animals at the area of induction of psoriasis [4]: 3.0 ± 0.0
- Mean scores of the presence of peeling on the skin of animals at the area of induction of psoriasis [4]: 2.5 ± 0.2
- Mean scores of the presence of erythema on the skin of animals at the area of induction of psoriasis (IMI + 3 mg/kg, D9): 1.5 ± 0.2
- Mean scores of the presence of induration on the skin of animals at the area of induction of psoriasis (IMI + 3 mg/kg, D9): 2.3 ± 0.2
- Mean scores of the presence of peeling on the skin of animals at the area of induction of psoriasis (IMI + 3 mg/kg, D9): 2.1 ± 0.2
- Mean scores of the presence of erythema on the skin of animals at the area of induction of psoriasis (IMI + 3 mg/kg, D10): 1.6 ± 0.2
- Mean scores of the presence of induration on the skin of animals at the area of induction of psoriasis (IMI + 3 mg/kg, D10): 2.0 ± 0.2
- Mean scores of the presence of peeling on the skin of animals at the area of induction of psoriasis (IMI + 3 mg/kg, D10): 1.6 ± 0.3
- Mean scores of the presence of erythema on the skin of animals at the area of induction of psoriasis (IMI + 3 mg/kg, D11): 1.4 ± 0.2
- Mean scores of the presence of induration on the skin of animals at the area of induction of psoriasis (IMI + 3 mg/kg, D11): 1.8 ± 0.2
- Mean scores of the presence of peeling on the skin of animals at the area of induction of psoriasis (IMI + 3 mg/kg, D11): 1.4 ± 0.2
- Mean scores of the presence of erythema on the skin of animals at the area of induction of psoriasis (IMI + 3 mg/kg, D12): 0.75 ± 0.2
- Mean scores of the presence of induration on the skin of animals at the area of induction of psoriasis (IMI + 3 mg/kg, D12): 0.9 ± 0.2
- Mean scores of the presence of peeling on the skin of animals at the area of induction of psoriasis (IMI + 3 mg/kg, D12): 1.1 ± 0.1
- Mean scores of the presence of erythema on the skin of animals at the area of induction of psoriasis (IMI + 3 mg/kg, D13): 0.3 ± 0.2
- Mean scores of the presence of induration on the skin of animals at the area of induction of psoriasis (IMI + 3 mg/kg, D13): 0.4 ± 0.2
- Mean scores of the presence of peeling on the skin of animals at the area of induction of psoriasis (IMI + 3 mg/kg, D13): 0.3 ± 0.2
- Mean scores of the presence of erythema on the skin of animals at the area of induction of psoriasis (IMI + 3 mg/kg, D14): 0.0 ± 0.0
- Mean scores of the presence of induration on the skin of animals at the area of induction of psoriasis (IMI + 3 mg/kg, D14): 0.4 ± 0.2
- Mean scores of the presence of peeling on the skin of animals at the area of induction of psoriasis (IMI + 3 mg/kg, D14): 0.4 ± 0.2
- Mean scores of the presence of erythema on the skin of animals at the area of induction of psoriasis (IMI + 3 mg/kg, D15): 0.1 ± 0.1
- Mean scores of the presence of induration on the skin of animals at the area of induction of psoriasis (IMI + 3 mg/kg, D15): 0.1 ± 0.1
- Mean scores of the presence of peeling on the skin of animals at the area of induction of psoriasis (IMI + 3 mg/kg, D15): 0.1 ± 0.1
- Mean PASI Scores in IMI-Psoriasis Model (mice, IMI + 3 mg/kg, D8 (before start of treatment)): 7.4 ± 0.3
- Mean PASI Scores in IMI-Psoriasis Model (mice, IMI + 3 mg/kg, D9): 5.9 ± 0.4
- Mean PASI Scores in IMI-Psoriasis Model (mice, IMI + 3 mg/kg, D10): 5.3 ± 0.5
- Mean PASI Scores in IMI-Psoriasis Model (mice, IMI + 3 mg/kg, D11): 4.5 ± 0.2
- Mean PASI Scores in IMI-Psoriasis Model (mice, IMI + 3 mg/kg, D12): 2.8 ± 0.4
- Mean PASI Scores in IMI-Psoriasis Model (mice, IMI + 3 mg/kg, D13): 0.9 ± 0.3
- Mean PASI Scores in IMI-Psoriasis Model (mice, IMI + 3 mg/kg, D14): 0.8 ± 0.3
- Mean PASI Scores in IMI-Psoriasis Model (mice, IMI + 3 mg/kg, D15): 0.4 ± 0.2
